pEC50, pKi: −log10 of the molar value. Read-outs that look alike come from different tables or passages of the source.
What was measured:
hKOR E297A = hKOR E297A (Homo sapiens, UniProt P41145, E297A); type: binding
KOR [1] = target: KOR (Homo sapiens, UniProt P41145); type: cell-based
KOR [2] = conditions: cited from earlier work
[3] = cited from earlier work
[4] = cited from earlier work; remark: listed apart in the source
KOR [5] = conditions: cited from earlier work; remark: listed apart in the source
KOR [6] = conditions: agonist; cited from earlier work
KOR [7] = conditions: cited from earlier work; remark: listed apart in the source

Chain of hKOR E297A (P41145 whole entry E297A): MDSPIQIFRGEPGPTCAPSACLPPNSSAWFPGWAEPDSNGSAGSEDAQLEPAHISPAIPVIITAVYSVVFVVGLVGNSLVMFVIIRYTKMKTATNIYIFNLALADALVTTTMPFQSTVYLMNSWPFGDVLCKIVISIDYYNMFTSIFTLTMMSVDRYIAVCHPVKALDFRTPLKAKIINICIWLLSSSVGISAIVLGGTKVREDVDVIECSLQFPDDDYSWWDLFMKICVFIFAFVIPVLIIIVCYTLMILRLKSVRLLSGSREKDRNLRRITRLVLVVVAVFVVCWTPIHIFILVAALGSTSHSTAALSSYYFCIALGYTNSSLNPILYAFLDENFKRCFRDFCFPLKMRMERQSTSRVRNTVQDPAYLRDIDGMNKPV
Chain of KOR (Homo sapiens, UniProt P41145) (P41145 whole entry): as the sequence (P41145 whole entry E297A) above, with A297E counted along it

## NC(N)=Nc1ccc2[nH]c3c(c2c1)C[C@@]1(O)[C@H]2Cc4ccc(O)c5c4[C@@]1(CCN2CC1CC1)[C@H]3O5 [GNTI]
hKOR E297A
  Effect of Glu297Ala mutation on binding: significant drop

## CC(C)[C@@H](CN1CC[C@@](C)(c2cccc(O)c2)[C@@H](C)C1)NC(=O)[C@H]1Cc2ccc(O)cc2CN1 [JDTic, (3R)-7-hydroxy-N-[(1S)-1-(((3R,4R)-4-(3-hydroxyphenyl)-3,4-dimethyl-1-piperidinyl)methyl)-2-methylpropyl]-1,2,3,4-tetrahydro-3-isoquinoline-carboxamide]
hKOR E297A
  Effect of Glu297Ala mutation on binding: did not affect
KOR [1]
  Agonist activity, Gi-mediated (canonical) signaling: devoid of agonist activity
  Blockade of the effects of agonist U69593, Gi-mediated signaling: completely blocked
KOR [2]
  Effect on κ-agonist U50,488-induced antinociception: blocks
[3]
  Effect on μ-agonist induced analgesia: not antagonizing
[4]
  Activity in rodent models of depression, anxiety, stress-induced cocaine relapse, and nicotine withdrawal: robust activity

## COC(=O)[C@@H]1C[C@H](OC(=O)CSC#N)C(=O)[C@H]2[C@@]1(C)CC[C@H]1C(=O)O[C@H](c3ccoc3)C[C@]21C [RB-64, 22-thiocyanatosalvinorin A]
KOR [5]
  pKi: 9.23
KOR [6]
  pEC50: 10.11

Source: publication PMC3356457 (Nature, 2012)
